According to patent US20240174618A1, “SUBSTITUTED (2-HETEROARYLOXYPHENYL)SULFONATES, SALTS THEREOF AND THEIR USE AS HERBICIDAL AGENTS” (Bayer Aktiengesellschaft, priority 2021, published 2024):

Experiments:
Assay type in all cases: in vivo
Veronica persica (VERPE) [1] = assay: B. Herbicidal post-emergence efficacy, VERPE
Method in brief: (§1)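 Weeds grown in sandy loam in greenhouse pots, sprayed at one-leaf stage (2–3 weeks after sowing) with WP or EC formulations as aqueous suspension/emulsion plus 0.5% additive at 600 L/ha water, rates up to 1280 g/ha. Visual efficacy rated about 3 weeks later versus untreated controls (0% = like control, 100% = dead).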

Setaria viridis (SETVI) [2] = assay: B. Herbicidal post-emergence efficacy, SETVI; conditions: 1280 g/ha
Experimental: (§2) Seeds of mono- and dicotyledonous weed plants were placed in plastic pots in sandy loam soil (doubly sown with in each case one species of mono- or dicotyledonous weed plants per pot), covered with soil and cultivated in a greenhouse under controlled growth conditions. 2 to 3 weeks after sowing, the test plants were treated at the one-leaf stage. The compounds of the invention, formulated in the form of wettable powders (WP) or as emulsion concentrates (EC), were applied onto the green parts of the plants as aqueous suspension or emulsion with addition of 0.5% additive at a water application rate of 600 liters per hectare (converted). After the test plants had been kept in the greenhouse under optimum growth conditions for about 3 weeks, the activity of the preparations was rated visually in comparison to untreated controls.
(§3) For example, • 100% efficacy=plants have died, • 0% efficacy=like untreated control plants
(§4) Tables B1a to B12c below show the effects of selected inventive compounds of the general formula (I) according to table 1 on various harmful plants at an application rate corresponding to 1280 g/ha or less, which were obtained by the experimental procedure mentioned above.

[3] = tested on: Matricaria inodora (MATIN); assay: A. Herbicidal pre-emergence efficacy, MATIN
Text: (§5) Seeds of mono- and dicotyledonous weed plants were placed in plastic pots in sandy loam soil (doubly sown with one species each of mono- or dicotyledonous weed plants per pot) and covered with soil. The compounds of the invention, formulated in the form of wettable powders (WP) or as emulsion concentrates (EC), were then applied onto the surface of the covering soil as aqueous suspension or emulsion with addition of 0.5% additive at a water application rate of 600 liters per hectare (converted). After the treatment, the pots were placed in a greenhouse and kept under good growth conditions for the test plants. After about 3 weeks, the efficacy of the preparations was scored visually in comparison with untreated controls as percentages.
(§6) For example, • 100% efficacy=plants have died, • 0% efficacy=like untreated control plants.
(§7) Tables A1a to A12c below show the effects of selected compounds of the general formula (I) according to table 1 on various harmful plants at an application rate corresponding to 1280 g/ha or less, which were obtained by the experimental procedure mentioned above.

[4] = tested on: Digitaria sanguinalis (DIGSA); assay: A. Herbicidal pre-emergence efficacy, DIGSA; conditions: scored visually after about 3 weeks vs untreated controls
Method in brief: (§8)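 Pre-emergence soil-surface spray in sandy loam pots, WP/EC in water plus 0.5% additive, 600 L/ha. Visual % damage rating after about 3 weeks in greenhouse vs. untreated; 0% = control-like, 100% = dead plants. Rates up to 1280 g/ha.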

[5] = tested on: Echinochloa crus-galli (ECHCG); assay: A. Herbicidal pre-emergence efficacy, ECHCG; conditions: scored visually after about 3 weeks vs untreated controls
Method in brief: as §8

[6] = tested on: Amaranthus retroflexus (AMARE); assay: A. Herbicidal pre-emergence efficacy, AMARE
Method in brief: as §8

Setaria viridis (SETVI) [7] = assay: A. Herbicidal pre-emergence efficacy, SETVI
Method in brief: as §8

[8] = tested on: Echinochloa crus-galli (ECHCG); assay: B. Herbicidal post-emergence efficacy, ECHCG; conditions: 1280 g/ha, rated visually after about 3 weeks
Method in brief: as §1

[9] = tested on: Digitaria sanguinalis (DIGSA); assay: B. Herbicidal post-emergence efficacy, DIGSA; conditions: 1280 g/ha, rated visually after about 3 weeks
Experimental: as §2, §3, §4

[10] = tested on: Amaranthus retroflexus (AMARE); assay: B. Herbicidal post-emergence efficacy, AMARE
Method in brief: as §1

Kochia scoparia (KCHSC) [11] = assay: B. Herbicidal post-emergence efficacy, KCHSC; conditions: for Post-emergence efficacy against KCHSC: 1280 g/ha; for Post-emergence efficacy against KCHSC in %: rated visually after about 3 weeks
Method in brief: as §1

Stellaria media (STEME) [12] = assay: B. Herbicidal post-emergence efficacy, STEME
Method in brief: as §1

Veronica persica (VERPE) [13] = assay: A. Herbicidal pre-emergence efficacy, VERPE
Method in brief: as §8

Poa annua (POAAN) [14] = assay: B. Herbicidal post-emergence efficacy, POAAN
Method in brief: as §1

[15] = tested on: Abutilon theophrasti (ABUTH); assay: A. Herbicidal pre-emergence efficacy, ABUTH; conditions: scored visually after about 3 weeks vs untreated controls
Method in brief: as §8

[16] = tested on: Abutilon theophrasti (ABUTH); assay: B. Herbicidal post-emergence efficacy, ABUTH; conditions: rated visually after about 3 weeks
Method in brief: as §1

Stellaria media (STEME) [17] = assay: A. Herbicidal pre-emergence efficacy, STEME
Method in brief: as §8

Lolium rigidum (LOLRI) = assay: A. Herbicidal pre-emergence efficacy, LOLRI
Text: as §5, §6, §7

Poa annua (POAAN) [18] = assay: A. Herbicidal pre-emergence efficacy, POAAN
Method in brief: as §8

Kochia scoparia (KCHSC) [19] = assay: A. Herbicidal pre-emergence efficacy, KCHSC; conditions: pre-emergence
Method in brief: as §8

[20] = tested on: Alopecurus myosuroides (ALOMY); assay: A. Herbicidal pre-emergence efficacy, ALOMY; conditions: 1280 g/ha; scored visually after about 3 weeks vs untreated controls
Text: as §5, §6, §7

[21] = pre-emergence, dosage 1280 g/ha

SMILES	Pre-emergence efficacy against MATIN [3, 21] [%]	Pre-emergence efficacy against DIGSA ([4]; 320 g/ha) [%]	Pre-emergence efficacy against DIGSA ([4]; 1280 g/ha) [%]	Pre-emergence efficacy against ECHCG ([5]; 320 g/ha) [%]	Pre-emergence efficacy against ECHCG ([5]; 1280 g/ha) [%]	Pre-emergence efficacy against AMARE in % ([6]; 320 g/ha) [%]	Pre-emergence efficacy against AMARE in % ([6]; 1280 g/ha) [%]	Pre-emergence efficacy against SETVI (Setaria viridis (SETVI) [7]; dosage 320 g/ha) [%]	Pre-emergence efficacy against SETVI (Setaria viridis (SETVI) [7]; dosage 1280 g/ha) [%]	Post-emergence efficacy against ECHCG in % [8] [%]	Post-emergence efficacy against KCHSC (Kochia scoparia (KCHSC) [11]) [%]	Post-emergence efficacy against STEME (Stellaria media (STEME) [12]; 1280 g/ha) [%]	Pre-emergence efficacy against VERPE in % (Veronica persica (VERPE) [13]; 1280 g/ha) [%]	Pre-emergence efficacy against ABUTH ([15]; 1280 g/ha) [%]	Post-emergence efficacy against ABUTH in % ([16]; 1280 g/ha) [%]	Pre-emergence efficacy against STEME (Stellaria media (STEME) [17]; dosage 320 g/ha) [%]	Pre-emergence efficacy against STEME (Stellaria media (STEME) [17]; dosage 1280 g/ha) [%]	Pre-emergence efficacy against LOLRI (Lolium rigidum (LOLRI); dosage 1280 g/ha) [%]	Pre-emergence efficacy against POAAN (Poa annua (POAAN) [18]; dosage 320 g/ha) [%]	Pre-emergence efficacy against POAAN (Poa annua (POAAN) [18]; dosage 1280 g/ha) [%]	further results
Cc1cccc(Oc2ncc(Br)cn2)c1OS(=O)(=O)CCC(F)(F)F [Example I-33]	90	100	100	100	100	100	100	100	100	100	100	100	100	100	100	100	100	100	100	100	Post-emergence efficacy against VERPE (Veronica persica (VERPE) [1]; 80 g/ha): 100%; Post-emergence efficacy against VERPE (Veronica persica (VERPE) [1]; 320 g/ha): 100%; Post-emergence efficacy against VERPE (Veronica persica (VERPE) [1]; 1280 g/ha): 100%; Post-emergence efficacy against SETVI (Setaria viridis (SETVI) [2]): 100%; Pre-emergence efficacy against AMARE in % ([6]; 80 g/ha): 90%; Post-emergence efficacy against DIGSA in % [9]: 90%; Post-emergence efficacy against AMARE ([10]; 320 g/ha): 90%; Post-emergence efficacy against AMARE ([10]; 1280 g/ha): 100%; Post-emergence efficacy against STEME (Stellaria media (STEME) [12]; 80 g/ha): 90%; Post-emergence efficacy against STEME (Stellaria media (STEME) [12]; 320 g/ha): 100%; Pre-emergence efficacy against VERPE in % (Veronica persica (VERPE) [13]; 320 g/ha): 100%; Pre-emergence efficacy against VERPE (Veronica persica (VERPE) [13]; dosage 80 g/ha): 90%; Post-emergence efficacy against POAAN (Poa annua (POAAN) [14]; 320 g/ha): 90%; Post-emergence efficacy against POAAN (Poa annua (POAAN) [14]; 1280 g/ha): 100%; Pre-emergence efficacy against ABUTH ([15]; 320 g/ha): 100%; Post-emergence efficacy against ABUTH in % ([16]; 320 g/ha): 90%; Pre-emergence efficacy against STEME (Stellaria media (STEME) [17]; dosage 80 g/ha): 100%
O=S(=O)(CC1CCCO1)Oc1c(F)cccc1Oc1ncc(Cl)cn1 (stereo not drawn) [Example I-54]	90	90	100	100	100	100	100	100	100	90	90	90	90	100	90	90	100	90	90	100	Post-emergence efficacy against VERPE (Veronica persica (VERPE) [1]; 80 g/ha): 90%; Post-emergence efficacy against VERPE (Veronica persica (VERPE) [1]; 320 g/ha): 90%; Post-emergence efficacy against VERPE (Veronica persica (VERPE) [1]; 1280 g/ha): 90%; Post-emergence efficacy against SETVI (Setaria viridis (SETVI) [2]): 90%; Post-emergence efficacy against DIGSA in % [9]: 90%; Post-emergence efficacy against AMARE ([10]; 1280 g/ha): 90%; Post-emergence efficacy against POAAN (Poa annua (POAAN) [14]; 1280 g/ha): 90%; Pre-emergence efficacy against ABUTH ([15]; 320 g/ha): 90%; Pre-emergence efficacy against KCHSC (Kochia scoparia (KCHSC) [19]; dosage 1280 g/ha): 90%
O=S(=O)(CCCC(F)(F)F)Oc1c(Br)cccc1Oc1ncc(F)cn1 [Example I-44]	100	100	100	100	100	100	100	100	100	100	100	100	100	100	100	100	100	100	100	100	Pre-emergence efficacy against MATIN ([3]; 320 g/ha, scored visually after about 3 weeks vs untreated controls): 90%; Pre-emergence efficacy against AMARE in % ([6]; 80 g/ha): 100%; Pre-emergence efficacy against ALOMY [20]: 100%; Post-emergence efficacy against KCHSC in % (Kochia scoparia (KCHSC) [11]; 80 g/ha): 100%; Post-emergence efficacy against KCHSC in % (Kochia scoparia (KCHSC) [11]; 320 g/ha): 100%; Post-emergence efficacy against STEME (Stellaria media (STEME) [12]; 80 g/ha): 100%; Post-emergence efficacy against STEME (Stellaria media (STEME) [12]; 320 g/ha): 100%; Pre-emergence efficacy against VERPE in % (Veronica persica (VERPE) [13]; 320 g/ha): 100%; Post-emergence efficacy against ABUTH in % ([16]; 320 g/ha): 90%; Pre-emergence efficacy against STEME (Stellaria media (STEME) [17]; dosage 80 g/ha): 100%; Pre-emergence efficacy against LOLRI (Lolium rigidum (LOLRI); dosage 320 g/ha): 100%; Pre-emergence efficacy against KCHSC (Kochia scoparia (KCHSC) [19]; dosage 320 g/ha): 100%; Pre-emergence efficacy against KCHSC (Kochia scoparia (KCHSC) [19]; dosage 1280 g/ha): 100%
